Reference: DBAASP
≈ marks a conversion by molar mass, not a printed value.

Experiments:
Experiment in all cases: ≥ marks a high value that may be exact or a test limit, other limits are often not marked, values filed in µg/mL are converted to µM
[1] = system: Candida albicans ATCC 2048
[2] = system: Candida glabrata ATCC 90525
[3] = system: Candida krusei ATCC 6258
[4] = system: Candida parapsilosis ATCC 20224
[5] = system: Candida tropicalis ATCC 20240
[6] = system: Candida albicans ATCC 18804
[7] = system: Escherichia coli MG1655
[8] = system: Staphylococcus aureus ATCC 33592
[9] = system: Micrococcus luteus 1D00051
[10] = system: Staphylococcus aureus 1D00101
[11] = system: Vibrio vulnificus 1H00066
[12] = system: Escherichia coli K12 MG1655
[13] = system: Escherichia coli UTI89
[14] = system: Salmonella enterica subsp. enterica serovar Typhimurium ATCC 14028
[15] = system: Staphylococcus epidermidis
[16] = system: Escherichia coli D31
[17] = system: Klebsiella pneumoniae ATCC 700603
[18] = system: Pseudomonas aeruginosa ATCC 10145
[19] = system: Staphylococcus aureus ATCC 27660
[20] = system: Acinetobacter baumannii BCRC 14B0091
[21] = system: Acinetobacter baumannii BCRC 14B0097
[22] = system: Acinetobacter baumannii BCRC 14B0100
[23] = system: Enterococcus faecium BCRC 15B0132
[24] = system: Escherichia coli BCRC 13B0198
[25] = system: Escherichia coli BCRC 13B0207
[26] = system: Acinetobacter baumannii ATCC BAA-1605
[27] = system: Acinetobacter baumannii KCCM 40203
[28] = system: Bacillus subtilis KCTC 3068
[29] = system: Candida albicans ATCC 90028
[30] = system: Candida parapsilosis ATCC 22019
[31] = system: Enterococcus faecalis KCCM 11814
[32] = system: Enterococcus faecalis KCCM 29212
[33] = system: Enterococcus faecium ATCC 51559
[34] = system: Enterococcus faecium KCCM 12118
[35] = system: Escherichia coli KCTC 1682
[36] = system: Malassezia furfur KCTC 7744
[37] = system: Pseudomonas aeruginosa CCARM 2180
[38] = system: Salmonella typhimurium KCTC 1926
[39] = system: Staphylococcus epidermidis KCTC 1917
[40] = system: Trichosporon beigelii KCTC 7707
[41] = system: Escherichia coli ATCC 25922
[42] = system: Salmonella typhimurium CMCC 50013
[43] = system: Staphylococcus aureus ATCC 29213

An MIC [1] of at least 280 µM, an MIC [2] of at least 260 µM and an MIC [3] of at least 270 µM were found for `CC(C)C[C@H](NC(=O)[C@H](C)N)C(=O)N[C@@H](CCC(N)=O)C(=O)NCC(=O)N[C@@H](C)C(=O)N[C@@H](CCCCN)C(=O)N[C@@H](CCC(=O)O)C(=O)N[C@@H](CCCN=C(N)N)C(=O)N[C@@H](C)C(=O)N[C@@H](Cc1cnc[nH]1)C(=O)N[C@@H](CCC(N)=O)C(=O)N[C@@H](CCC(N)=O)C(=O)O` [ALQGAKERAHQQ] in this work. The MIC [4] was at least 270 µM and the MIC [5] was at least 75 µM.
An MIC [6] of at least 128 µM, an MIC [7] of at least 64 µM and an MIC [8] of at least 128 µM were found for `CC[C@H](C)[C@H](NC(C)=O)C(=O)N[C@@H](CCCCN)C(=O)N[C@@H](CCCN=C(N)N)C(=O)N[C@@H](CC(C)C)C(=O)N[C@@H](CC(N)=O)C(=O)N[C@@H](CO)C(=O)N[C@@H](Cc1c[nH]c2ccccc12)C(=O)N[C@@H](CC(C)C)C(=O)N[C@@H](CCCN=C(N)N)C(=O)N[C@@H](CCCCN)C(N)=O` [IKRLNSWLRK] in this work.
An MIC [9] of 9 µM (≈ 19.5 µg/mL), an MIC [10] of 4 µM (≈ 8.65 µg/mL) and an MIC [11] of at least 80 µM were found for `CC[C@H](C)[C@H](NC(=O)[C@H](CCCN=C(N)N)NC(=O)[C@@H](NC(=O)[C@H](CCSC)NC(=O)[C@@H]1CCCN1C(=O)CNC(=O)[C@H](Cc1cnc[nH]1)NC(=O)[C@@H](NC(=O)[C@H](CCCCN)NC(=O)[C@H](CCCN=C(N)N)NC(=O)[C@H](CCCN=C(N)N)NC(=O)[C@H](CCCN=C(N)N)NC(=O)[C@H](CS)NC(=O)[C@@H](N)CCCCN)C(C)C)[C@@H](C)CC)C(=O)N[C@@H](CCCN=C(N)N)C(=O)N[C@@H](CCCCN)C(=O)N[C@@H](CCCCN)C(=O)O` [KCRRRKVHGPMIRIRKK] in this work.
An MIC [12] of at least 50 µM, an MIC [13] of at least 50 µM and an MIC [14] of over 50 µM were found for `CC[C@H](C)[C@H](NC(=O)[C@H](CCCCN)NC(=O)[C@@H](N)CCCCN)C(=O)NCC(=O)N[C@@H](CCC(N)=O)C(=O)N[C@@H](CCCCN)C(=O)N[C@H](C(=O)N[C@@H](CCCCN)C(=O)N[C@@H](CC(N)=O)C(=O)N[C@@H](Cc1ccccc1)C(=O)N[C@@H](Cc1ccccc1)C(=O)N[C@@H](CCC(N)=O)C(=O)N[C@@H](CCCCN)C(=O)N[C@@H](CC(C)C)C(=O)O)[C@@H](C)CC` [KKIGQKIKNFFQKL] in this work. It also gave an MIC [15] of at least 50 µM.
An MIC [16] of 0.94 µM (≈ 2.37 µg/mL), an MIC [17] of 1.88 µM (≈ 4.73 µg/mL) and an MIC [18] of 1.88 µM (≈ 4.73 µg/mL) were found for `CC[C@H](C)[C@H](NC(=O)CNC(=O)[C@H](CCCCN)NC(=O)[C@H](Cc1c[nH]c2ccccc12)NC(=O)[C@H](CC(C)C)NC(=O)[C@H](CCCCN)NC(=O)[C@H](CCCCN)NC(=O)[C@H](C)NC(=O)[C@H](CCCCN)NC(=O)[C@H](CCCCN)NC(=O)[C@H](Cc1ccccc1)NC(=O)CNC(=O)[C@H](CCCCN)NC(=O)[C@H](C)NC(=O)[C@H](Cc1ccccc1)NC(=O)[C@@H](NC(=O)[C@H](CCCCN)NC(=O)[C@@H](NC(=O)[C@H](CC(C)C)NC(=O)[C@H](CCCCN)NC(=O)[C@@H](N)CCCCN)[C@@H](C)CC)C(C)C)C(=O)NCC(=O)O` [KKLIKVFAKGFKKAKKLWKGIG] in this work. The MIC [19] was 0.97 µM (≈ 2.44 µg/mL).
An MIC [20] of at least 46.7 µM, an MIC [21] of at least 46.7 µM and an MIC [22] of at least 46.7 µM were found for `CC(=O)N[C@@H](CCCCN)C(=O)N[C@@H](CCCCN)C(=O)N[C@@H](Cc1c[nH]c2ccccc12)C(=O)N[C@@H](CCCN=C(N)N)C(=O)N[C@@H](CCCCN)C(=O)N[C@@H](Cc1c[nH]c2ccccc12)C(=O)N[C@@H](CC(C)C)C(=O)N[C@@H](C)C(=O)N[C@@H](CCCCN)C(=O)N[C@@H](CCCCN)C(N)=O` [KKWRKWLAKK] in this work. For the same compound, the MIC [23] was at least 46.7 µM, the MIC [24] was at least 46.7 µM and the MIC [25] was at least 46.7 µM.
An MIC [26] of at least 80 µM, an MIC [27] of at least 80 µM and an MIC [28] of 3.51 µM (≈ 4 µg/mL) were found for `CC[C@H](C)[C@H](NC(=O)[C@H](Cc1c[nH]c2ccccc12)NC(=O)[C@H](CC(C)C)NC(=O)[C@@H](N)CC(C)C)C(=O)N[C@@H](C)C(=O)N[C@@H](CC(C)C)C(=O)N[C@@H](CCCN=C(N)N)C(=O)N[C@@H](CCCCN)C(=O)N[C@@H](CCCCN)C(N)=O` [LLWIALRKK] in this work. It also gave an MIC [29] of 0.614 µM (≈ 0.699 µg/mL), an MIC [30] of 0.614 µM (≈ 0.699 µg/mL) and an MIC [31] of at least 80 µM. The MIC [32] was 7.01 µM (≈ 7.99 µg/mL), the MIC [33] was 1.75 µM (≈ 2 µg/mL) and the MIC [34] was 7.01 µM (≈ 7.99 µg/mL). The MIC [35] was 3.51 µM (≈ 4 µg/mL), the MIC [36] was 0.614 µM (≈ 0.699 µg/mL) and the MIC [37] was at least 80 µM. For the same compound, the MIC [38] was 3.51 µM (≈ 4 µg/mL), the MIC [39] was 3.51 µM (≈ 4 µg/mL) and the MIC [40] was 1.32 µM (≈ 1.5 µg/mL).
An MIC [28] of 5.9 µM (≈ 12.2 µg/mL), an MIC [41] of 10.3 µM (≈ 21.4 µg/mL) and an MIC [42] of 20.8 µM (≈ 43.1 µg/mL) were found for `CC[C@H](C)[C@H](NC(=O)[C@@H](N)CO)C(=O)N[C@@H](CO)C(=O)N[C@@H](CC(C)C)C(=O)N[C@@H](CC(C)C)C(=O)N[C@@H](Cc1ccc(O)cc1)C(=O)NCC(=O)N[C@@H](CCCN=C(N)N)C(=O)N[C@@H](CCCCN)C(=O)N[C@@H](CCCCN)C(=O)N[C@@H](CCCN=C(N)N)C(=O)N[C@@H](CCCN=C(N)N)C(=O)N[C@@H](CCC(N)=O)C(=O)N[C@@H](CCCN=C(N)N)C(=O)N[C@@H](CCCN=C(N)N)C(=O)N[C@@H](CCCN=C(N)N)C(=O)O` [SISLLYGRKKRRQRRR] in this work. The MIC [43] was 11 µM (≈ 22.8 µg/mL).
